Source: US10383931B2, “Peptides and combination of peptides for use in immunotherapy against cancers” (IMMATICS BIOTECHNOLOGIES GMBH, priority 2016, dated 2019)

Molecular target: HLA-A*02:01 (Homo sapiens, UniProt P04439, D140Y/D185E/D98H/E176V/E277Q/G131W/G231S/I119V/I121R/I166T/I218V/L300P/L318F/N151K/N90K/P208A/P217A/Q86G/Q94H/R138H/R169H/T345S)
Test: ELISA-based assay of affinity (KD) to HLA-A*02:01
Assay type: binding
Conditions: FIG. 5

binding to HLA-A*02:01 (dissociation constant KD, in words) | Substance
very good binding | KIQEILTQV [IGF2BP3-001, HLA-A*02-presented tumor-associated peptide]
strong binder | MET-001: control peptide, strong binder to HLA-A*02:01 (YVDPVITSI)
